IC50 data for 17 compounds are collected here from patent US11453647B2, “Benzimidazole derivatives as adenosine receptor antagonists” (Merck Patent GmbH, priority 2017, dated 2022).

Where only a bound is given, the exact number is not on record here.

What all share (type): cell-based
One assay addresses T1, human A1 receptor (Homo sapiens, UniProt P30542).
T1 construct: expressed in transfected cells; host or cells: CHO
T1 sequence (P30542 1-326): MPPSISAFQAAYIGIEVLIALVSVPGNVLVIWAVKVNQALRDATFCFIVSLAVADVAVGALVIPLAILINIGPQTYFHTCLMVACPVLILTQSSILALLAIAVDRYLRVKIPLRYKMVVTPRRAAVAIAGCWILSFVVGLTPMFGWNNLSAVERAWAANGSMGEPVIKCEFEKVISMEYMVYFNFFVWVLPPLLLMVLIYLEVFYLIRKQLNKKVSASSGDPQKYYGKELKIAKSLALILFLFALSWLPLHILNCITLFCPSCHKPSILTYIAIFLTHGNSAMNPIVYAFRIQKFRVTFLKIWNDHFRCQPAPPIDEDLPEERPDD
Kind of assay: functional cAMP (HTRF) assay, recombinant CHO cells expressing human A1 receptor, forskolin, agonist CPA. An outline of the steps:
(§1)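 Normalized HTRF cAMP signals (inhibitor and DMSO controls as references) were curve-fitted; assays used forskolin-stimulated CHO cells with A1 or A3, agonist CPA or IB-MECA respectively, 30 min compound incubation.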
(Time-resolved FRET reads energy transfer from a long-lived donor to a nearby acceptor.)

The next assay has as its target T2, human A3 receptor (Homo sapiens, UniProt P0DMS8).
T2 construct: expressed in transfected cells; host or cells: CHO
T2 sequence (P0DMS8 1-318): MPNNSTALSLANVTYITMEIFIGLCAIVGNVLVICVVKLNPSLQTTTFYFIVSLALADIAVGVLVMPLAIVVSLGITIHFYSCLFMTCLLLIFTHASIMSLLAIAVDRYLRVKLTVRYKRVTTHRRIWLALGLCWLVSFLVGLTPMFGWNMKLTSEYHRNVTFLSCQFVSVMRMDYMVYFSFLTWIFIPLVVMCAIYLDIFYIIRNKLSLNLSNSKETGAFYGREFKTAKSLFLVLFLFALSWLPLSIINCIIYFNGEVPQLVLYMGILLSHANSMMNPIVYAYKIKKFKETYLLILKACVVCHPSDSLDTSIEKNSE
Kind of assay: functional cAMP (HTRF) assay, recombinant CHO cells expressing human A3 receptor, forskolin, agonist IB-MECA. Summed up: as §1

The target in another assay is T3, human A2A receptor (Homo sapiens, UniProt P29274).
T3 construct: expressed in transfected cells; host or cells: HEK293
T3 sequence (P29274 whole entry): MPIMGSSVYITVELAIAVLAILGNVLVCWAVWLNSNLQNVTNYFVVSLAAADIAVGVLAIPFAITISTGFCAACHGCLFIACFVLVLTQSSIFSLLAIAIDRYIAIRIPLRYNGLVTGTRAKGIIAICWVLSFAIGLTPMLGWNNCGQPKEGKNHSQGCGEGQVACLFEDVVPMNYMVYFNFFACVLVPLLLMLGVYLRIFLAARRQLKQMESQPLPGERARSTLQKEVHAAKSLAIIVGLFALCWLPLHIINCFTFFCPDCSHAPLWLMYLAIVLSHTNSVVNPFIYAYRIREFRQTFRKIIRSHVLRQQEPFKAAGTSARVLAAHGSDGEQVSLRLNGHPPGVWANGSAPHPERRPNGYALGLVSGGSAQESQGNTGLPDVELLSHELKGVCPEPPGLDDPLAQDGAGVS
The assay is described as follows: functional cAMP (HTRF) assay, recombinant HEK293 cells expressing human A2A receptor, agonist NECA.

The next assay deals with T4, A2B receptors (Homo sapiens, UniProt P29275).
T4 sequence (P29275 1-332): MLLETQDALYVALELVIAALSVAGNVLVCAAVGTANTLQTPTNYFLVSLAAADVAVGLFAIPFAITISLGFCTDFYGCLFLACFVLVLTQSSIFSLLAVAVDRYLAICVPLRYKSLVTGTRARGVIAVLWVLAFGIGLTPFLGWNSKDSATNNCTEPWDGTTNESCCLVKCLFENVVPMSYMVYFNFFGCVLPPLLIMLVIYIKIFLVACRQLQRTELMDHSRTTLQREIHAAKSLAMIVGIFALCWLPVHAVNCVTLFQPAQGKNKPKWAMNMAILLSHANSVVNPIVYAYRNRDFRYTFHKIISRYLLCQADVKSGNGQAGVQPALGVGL
The assay is described as follows: functional cAMP (HTRF) assay, recombinant HEK293 cells expressing human A2B receptor, agonist NECA. Also on record: expressed in transfected cells; host or cells: HEK293.

The term IC50 denotes the midpoint of a concentration-inhibition curve. As to `COc1ccc(-c2cnn(C)c2)c2nc(NC(=O)c3ccc4c(c3)CCO4)[nH]c12` [compound 101, N-[7-methoxy-4-(1-methyl-1H-pyrazol-4-yl)-1H-1,3-benzodiazol-2-yl]-2,3-dihydro-l-benzofuran-5-carboxamide], the IC50 on human A1 receptor is below 1000 nM; at human A3 receptor it was below 1000 nM; on human A2A receptor it was below 10 nM; at A2B receptors, below 1000 nM.
Consider `C#CCC1(O)CCN(C(=O)Nc2nc3c(C4CCOCC4)ccc(OC)c3[nH]2)CC1` [compound 102, 4-hydroxy-N-[7-methoxy-4-(oxan-4-yl)-1H-1,3-benzodiazol-2-yl]-4-(prop-2-yn-1-yl)piperidine-1-carboxamide], for which the IC50 on human A1 receptor was above 1000 nM; on human A3 receptor it was above 1000 nM; on human A2A receptor, below 10 nM; at A2B receptors it was above 1000 nM.
`COc1ccc(C2CCOCC2)c2nc(NC(=O)N3CCC(O)(Cc4ccccc4)CC3)[nH]c12` [compound 103, 4-benzyl-4-hydroxy-N-[7-methoxy-4-(oxan-4-yl)-1H-1,3-benzodiazol-2-yl]piperidine-1-carboxamide]: the IC50 on human A1 receptor is below 1000 nM; at human A3 receptor it was above 1000 nM; on human A2A receptor, below 10 nM; at A2B receptors it was below 1000 nM.
With `COc1ccc(-c2cnn(C)c2)c2nc(NC(=O)c3ccnc(N4CC[C@](C)(O)C4)c3)[nH]c12` [compound 104, 2-[(3S)-3-hydroxy-3-methylpyrrolidin-1-yl]-N-[7-methoxy-4-(1-methyl-1H-pyrazol-4-yl)-1H-1,3-benzodiazol-2-yl]pyridine-4-carboxamide], the IC50 on human A1 receptor was above 1000 nM; at human A3 receptor it was below 1000 nM; on human A2A receptor, below 10 nM; at A2B receptors, above 1000 nM.
For the compound `COc1ccc(-c2cnn(C)c2)c2nc(NC(=O)c3ccnc(N4CCC(C)(O)CC4)c3)[nH]c12` [compound 105], the IC50 on human A1 receptor was above 1000 nM; on human A3 receptor, below 1000 nM; at human A2A receptor it was below 10 nM; on A2B receptors it was below 1000 nM.
Consider `COc1ccc(-c2cnn(C)c2)c2nc(NC(=O)c3ccnc(N4CCC5(CCOC5)C4)c3)[nH]c12` (centres unmarked) [compound 106, N-[7-methoxy-4-(1-methyl-1H-pyrazol-4-yl)-1H-1,3-benzodiazol-2-yl]-2-{2-oxa-7-azaspiro[4.4]nonan-7-yl}pyridine-4-carboxamide], for which the IC50 was above 1000 nM on human A1 receptor, below 1000 nM at human A3 receptor, below 10 nM at human A2A receptor and above 1000 nM at A2B receptors.
For the compound `COc1ccc(C2CCOCC2)c2nc(NC(=O)c3ccc4c(c3)CCO4)[nH]c12` [compound 108, N-[7-methoxy-4-(oxan-4-yl)-1H-1,3-benzodiazol-2-yl]-2,3-dihydro-1-benzofuran-5-carboxamide], the IC50 was above 1000 nM on human A1 receptor, below 1000 nM at human A3 receptor, below 10 nM at human A2A receptor and below 1000 nM at A2B receptors.
As for `COc1ccc(C2CCOCC2)c2nc(NC(=O)c3ccnc(N4CCC5(CCOC5)C4)c3)[nH]c12` (centres unmarked) [compound 119, N-[7-methoxy-4-(oxan-4-yl)-1H-1,3-benzodiazol-2-yl]-2-{2-oxa-7-azaspiro[4.4]nonan-7-yl}pyridine-4-carboxamide], the IC50 is above 1000 nM on human A1 receptor, above 1000 nM at human A3 receptor, below 10 nM at human A2A receptor and above 1000 nM at A2B receptors.
As for `COc1ccc(C2CCOCC2)c2nc(NC(=O)c3ccnc(N4CCC(C)(O)C4)c3)[nH]c12` (centres unmarked) [compound 122, 2-(3-hydroxy-3-methylpyrrolidin-1-yl)-N-[7-methoxy-4-(oxan-4-yl)-1H-1,3-benzodiazol-2-yl]pyridine-4-carboxamide], the IC50 at human A1 receptor is above 1000 nM; at human A3 receptor, above 1000 nM; on human A2A receptor, below 10 nM; on A2B receptors, above 1000 nM.
Take `COCCC1CCN(C(=O)Nc2nc3c(-c4cnn(C)c4)ccc(OC)c3[nH]2)C1` (centres unmarked) [compound 134, N-[7-methoxy-4-(1-methyl-1H-pyrazol-4-yl)-1H-1,3-benzodiazol-2-yl]-3-(2-methoxyethyl)pyrrolidine-1-carboxamide]: the IC50 was above 1000 nM on human A1 receptor, above 1000 nM on human A3 receptor, below 100 nM at human A2A receptor and below 1000 nM at A2B receptors.
Turning to `COc1ccc(-c2ccc(F)cc2)c2nc(NC(=O)N3CCC(C)(O)CC3)[nH]c12` [compound 144, N-[4-(4-fluorophenyl)-7-methoxy-1H-1,3-benzodiazol-2-yl]-4-hydroxy-4-methylpiperidine-1-carboxamide], the IC50 at human A1 receptor was below 1000 nM; at human A3 receptor it was above 1000 nM; at human A2A receptor it was below 10 nM; on A2B receptors, below 1000 nM.
Take `COc1ccc(-c2cnn(C3CCN(C(=O)OC(C)(C)C)CC3)c2)c2[nH]c(NC(=O)N3CCC(C)(O)CC3)nc12` [compound 145, tert-butyl 4-(4-{2-[(4-hydroxy-4-methylpiperidine-1-carbonyl)amino]-4-methoxy-1H-1,3-benzodiazol-7-yl}-1H-pyrazol-1-yl)piperidine-1-carboxylate]: the IC50 at human A1 receptor is above 1000 nM; at human A3 receptor, above 1000 nM; at human A2A receptor, below 10 nM; at A2B receptors, above 1000 nM.
As for `COc1ccc(C2CCOCC2)c2nc(NC(=O)N3CC[C@@]4(CCOC4)C3)[nH]c12` [compound 150, (5R)-N-[7-methoxy-4-(oxan-4-yl)-1H-1,3-benzodiazol-2-yl]-2-oxa-7-azaspiro[4.4]nonane-7-carboxamide], the IC50 on human A1 receptor is above 1000 nM; on human A3 receptor it was above 1000 nM; on human A2A receptor, below 10 nM; on A2B receptors, above 1000 nM.
Consider `COc1ccc(-c2cnn(CCC(C)C)c2)c2nc(NC(=O)N3CCC(C)(O)CC3)[nH]c12` [compound 151, 4-hydroxy-N-{7-methoxy-4-[1-(3-methylbutyl)-1H-pyrazol-4-yl]-1H-1,3-benzodiazol-2-yl}-4-methylpiperidine-1-carboxamide], for which the IC50 at human A1 receptor is below 1000 nM; at human A3 receptor it was above 1000 nM; at human A2A receptor, below 10 nM; at A2B receptors, above 1000 nM.
For the compound `COc1ccc(-c2cnn(C)c2)c2nc(NC(=O)c3ccc(CN4CCOCC4)cc3)[nH]c12` [compound 152, N-[7-methoxy-4-(1-methyl-1H-pyrazol-4-yl)-1H-1,3-benzodiazol-2-yl]-4-[(morpholin-4-yl)methyl]benzamide], the IC50 on human A1 receptor was above 1000 nM; at human A3 receptor, below 1000 nM; on human A2A receptor, below 100 nM; at A2B receptors it was below 1000 nM.
Turning to `COc1ccc(C2CCOCC2)c2nc(NC(=O)c3ccnc(N4CC[C@@]5(CCOC5)C4)c3)[nH]c12` [compound 153, N-[7-methoxy-4-(oxan-4-yl)-1H-1,3-benzodiazol-2-yl]-2-[(5R)-2-oxa-7-azaspiro[4.4]nonan-7-yl]pyridine-4-carboxamide], the IC50 was above 1000 nM on human A1 receptor, above 1000 nM at human A3 receptor, below 10 nM at human A2A receptor and above 1000 nM at A2B receptors.
For the compound `COc1ccc(C2CCOCC2)c2nc(NC(=O)c3ccnc(N4CC[C@]5(CCOC5)C4)c3)[nH]c12` [compound 154, N-[7-methoxy-4-(oxan-4-yl)-1H-1,3-benzodiazol-2-yl]-2-[(5S)-2-oxa-7-azaspiro[4.4]nonan-7-yl]pyridine-4-carboxamide], the IC50 was above 1000 nM on human A1 receptor, below 1000 nM at human A3 receptor, below 10 nM on human A2A receptor and above 1000 nM on A2B receptors.
